Biological target: T1, chimeric human H3 receptor (Homo sapiens, UniProt Q9Y5N1)
T1 construct: made in house; host or cells: Sf9 insect cells (baculovirus); P2 membrane preparation
Assay: Chimeric human H3 receptor GTP binding assay (agonist-stimulated GTP-gamma35S binding, Example 7)
Type: biochemical
Details: Table II "Ki", symbol *; assay of Example 7
In short: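 Sf9 membranes co-expressing chimeric human H3 receptor and heterotrimeric G-protein, 35 μg/tube, in pH 7.4 Tris buffer with 10 μM GDP. Test compounds (10^−10–10^−6 M) competed against 1 μM histamine, […] GTP-gamma35S, 60 min at room temperature. Filter-bound radioactivity counted; IC50 converted to Ki by Cheng-Prusoff. Agonism/inverse agonism tested without histamine (EC50).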

T1 sequence (Q9Y5N1 with tags, fused parts or gaps): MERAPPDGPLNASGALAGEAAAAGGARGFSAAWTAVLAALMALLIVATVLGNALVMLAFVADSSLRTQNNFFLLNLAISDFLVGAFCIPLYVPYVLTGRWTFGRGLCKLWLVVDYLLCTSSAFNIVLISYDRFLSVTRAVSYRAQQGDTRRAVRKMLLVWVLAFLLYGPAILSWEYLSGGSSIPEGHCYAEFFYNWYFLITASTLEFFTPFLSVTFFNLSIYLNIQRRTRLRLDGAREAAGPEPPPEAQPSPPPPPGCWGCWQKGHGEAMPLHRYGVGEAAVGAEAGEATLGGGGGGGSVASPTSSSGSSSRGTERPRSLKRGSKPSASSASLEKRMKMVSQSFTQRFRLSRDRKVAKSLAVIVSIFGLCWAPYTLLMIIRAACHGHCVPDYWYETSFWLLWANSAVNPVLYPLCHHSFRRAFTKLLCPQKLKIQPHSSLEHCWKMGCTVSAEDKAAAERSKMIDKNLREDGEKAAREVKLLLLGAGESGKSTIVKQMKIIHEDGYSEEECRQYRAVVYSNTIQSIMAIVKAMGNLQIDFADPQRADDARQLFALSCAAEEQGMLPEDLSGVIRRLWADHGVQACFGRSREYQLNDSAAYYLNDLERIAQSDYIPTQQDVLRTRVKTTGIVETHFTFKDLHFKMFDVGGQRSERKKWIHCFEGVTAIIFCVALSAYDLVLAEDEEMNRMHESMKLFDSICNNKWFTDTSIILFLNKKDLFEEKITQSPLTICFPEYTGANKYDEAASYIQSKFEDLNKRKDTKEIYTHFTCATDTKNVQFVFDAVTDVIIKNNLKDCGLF

Ki | Structure (SMILES)
< 1 µM | O=C(CN1CCc2cc(-c3nccc(C(F)(F)F)n3)ccc2C1)N1CCN(C2CCC2)CC1 [Compound 636, 2-[2-(4-cyclobutylpiperazin-1-yl)-2-oxoethyl]-6-[4-(trifluoromethyl)pyrimidin-2-yl]-1,2,3,4-tetrahydroisoquinoline]
< 1 µM | O=C(CN1CCc2cc(-c3nccc4ccccc34)ccc2C1)N1CCN(C2CCC2)CC1 [Compound 637, 2′-[2-(4-cyclobutylpiperazin-1-yl)-2-oxoethyl]-1′,2′,3′,4′-tetrahydro-1,6′-biisoquinoline]
< 1 µM | O=C(CN1CCc2cc(-c3cnc4ccccc4c3)ccc2C1)N1CCN(C2CCC2)CC1 [Compound 638, 3-{2-[2-(4-cyclobutylpiperazin-1-yl)-2-oxoethyl]-1,2,3,4-tetrahydroisoquinolin-6-yl}quinoline]
< 1 µM | O=C(CN1CCc2cc(-c3cccc4[nH]ccc34)ccc2C1)N1CCN(C2CCC2)CC1 [Compound 639, 2-[2-(4-cyclobutylpiperazin-1-yl)-2-oxoethyl]-6-(1H-indol-4-yl)-1,2,3,4-tetrahydroisoquinoline]
< 1 µM | CN(C)Cc1ccccc1-c1ccc2c(c1)CCN(CC(=O)N1CCN(C3CCC3)CC1)C2 [Compound 640, 1-(2-{2-[2-(4-cyclobutylpiperazin-1-yl)-2-oxoethyl]-1,2,3,4-tetrahydroisoquinolin-6-yl}phenyl)-N,N-dimethylmethanamine]
< 1 µM | CN(C)Cc1cccc(-c2ccc3c(c2)CCN(CC(=O)N2CCN(C4CCC4)CC2)C3)c1 [Compound 641, 1-(3-{2-[2-(4-cyclobutylpiperazin-1-yl)-2-oxoethyl]-1,2,3,4-tetrahydroisoquinolin-6-yl}phenyl)-N,N-dimethylmethanamine]
< 1 µM | CN(C)Cc1ccc(-c2ccc3c(c2)CCN(CC(=O)N2CCN(C4CCC4)CC2)C3)cc1 [Compound 642, 1-(4-{2-[2-(4-cyclobutylpiperazin-1-yl)-2-oxoethyl]-1,2,3,4-tetrahydroisoquinolin-6-yl}phenyl)-N,N-dimethylmethanamine]
< 1 µM | CN(C)CCc1ccccc1-c1ccc2c(c1)CCN(CC(=O)N1CCN(C3CCC3)CC1)C2 [Compound 643, 2-(2-{2-[2-(4-cyclobutylpiperazin-1-yl)-2-oxoethyl]-1,2,3,4-tetrahydroisoquinolin-6-yl}phenyl)-N,N-dimethylethanamine]
< 1 µM | CN(C)CCc1cccc(-c2ccc3c(c2)CCN(CC(=O)N2CCN(C4CCC4)CC2)C3)c1 [Compound 644, 2-(3-{2-[2-(4-cyclobutylpiperazin-1-yl)-2-oxoethyl]-1,2,3,4-tetrahydroisoquinolin-6-yl}phenyl)-N,N-dimethylethanamine]
< 1 µM | CN(C)CCc1ccc(-c2ccc3c(c2)CCN(CC(=O)N2CCN(C4CCC4)CC2)C3)cc1 [Compound 645, 2-(4-{2-[2-(4-cyclobutylpiperazin-1-yl)-2-oxoethyl]-1,2,3,4-tetrahydroisoquinolin-6-yl}phenyl)-N,N-dimethylethanamine]
< 1 µM | COCc1ccc(-c2ccc3c(c2)CCN(CC(=O)N2CCN(C4CCC4)CC2)C3)nc1 [Compound 646, 2-[2-(4-cyclobutylpiperazin-1-yl)-2-oxoethyl]-6-[5-(methoxymethyl)pyridin-2-yl]-1,2,3,4-tetrahydroisoquinoline]
< 1 µM | CC(C)c1ccc(-c2ccc3c(c2)CCN(CC(=O)N2CCN(C4CCC4)CC2)C3)nc1 [Compound 647, 2-[2-(4-cyclobutylpiperazin-1-yl)-2-oxoethyl]-6-(5-isopropylpyridin-2-yl)-1,2,3,4-tetrahydroisoquinoline]
< 1 µM | O=C(CN1CCc2cc(-c3ccc(C(F)(F)F)nc3)ccc2C1)N1CCN(C2CCC2)CC1 [Compound 648, 2-[2-(4-cyclobutylpiperazin-1-yl)-2-oxoethyl]-6-[6-(trifluoromethyl)pyridin-3-yl]-1,2,3,4-tetrahydroisoquinoline]
< 1 µM | CC(C)c1ccc(-c2ccc3c(c2)CCN(CC(=O)N2CCN(C4CCC4)CC2)C3)cn1 [Compound 649, 2-[2-(4-cyclobutylpiperazin-1-yl)-2-oxoethyl]-6-(6-isopropylpyridin-3-yl)-1,2,3,4-tetrahydroisoquinoline]
< 1 µM | O=C(CN1CCc2nc(NCC3CC3)ccc2C1)N1CCN(C2CCC2)CC1 [Compound 650, 6-[2-(4-cyclobutylpiperazin-1-yl)-2-oxoethyl]-N-(cyclopropylmethyl)-5,6,7,8-tetrahydro-1,6-naphthyridin-2-amine]
< 1 µM | CC(C)CNc1ccc2c(n1)CCN(CC(=O)N1CCN(C3CCC3)CC1)C2 [Compound 651, 6-[2-(4-cyclobutylpiperazin-1-yl)-2-oxoethyl]-N-isobutyl-5,6,7,8-tetrahydro-1,6-naphthyridin-2-amine]
< 1 µM | CC(C)CCNc1ccc2c(n1)CCN(CC(=O)N1CCN(C3CCC3)CC1)C2 [Compound 652, 6-[2-(4-cyclobutylpiperazin-1-yl)-2-oxoethyl]-N-(3-methylbutyl)-5,6,7,8-tetrahydro-1,6-naphthyridin-2-amine]

Ki | Structure (SMILES)
< 1 µM | O=C1CCCN1CCCNc1ccc2c(n1)CCN(CC(=O)N1CCN(C3CCC3)CC1)C2 [Compound 653, 1-[3-({6-[2-(4-cyclobutylpiperazin-1-yl)-2-oxoethyl]-5,6,7,8-tetrahydro-1,6-naphthyridin-2-yl}amino)propyl] pyrrolidin-2-one]
< 1 µM | O=C(CN1CCc2nc(NC3CCC3)ccc2C1)N1CCN(C2CCC2)CC1 [Compound 654, N-cyclobutyl-6-[2-(4-cyclobutylpiperazin-1-yl)-2-oxoethyl]-5,6,7,8-tetrahydro-1,6-naphthyridin-2-amine]
< 1 µM | CCC(C)Nc1ccc2c(n1)CCN(CC(=O)N1CCN(C3CCC3)CC1)C2 (stereo not shown) [Compound 655, N-sec-butyl-6-[2-(4-cyclobutylpiperazin-1-yl)-2-oxoethyl]-5,6,7,8-tetrahydro-1,6-naphthyridin-2-amine]
< 1 µM | O=C(CN1CCc2nc(NC3CCCC3)ccc2C1)N1CCN(C2CCC2)CC1 [Compound 656, 6-[2-(4-cyclobutylpiperazin-1-yl)-2-oxoethyl]-N-cyclopentyl-5,6,7,8-tetrahydro-1,6-naphthyridin-2-amine]
< 1 µM | CCCC(C)Nc1ccc2c(n1)CCN(CC(=O)N1CCN(C3CCC3)CC1)C2 (stereo not shown) [Compound 657, 6-[2-(4-cyclobutylpiperazin-1-yl)-2-oxoethyl]-N-(1-methylbutyl)-5,6,7,8-tetrahydro-1,6-naphthyridin-2-amine]
< 1 µM | O=C(CN1CCc2nc(NC3CCCCC3)ccc2C1)N1CCN(C2CCC2)CC1 [Compound 658, 6-[2-(4-cyclobutylpiperazin-1-yl)-2-oxoethyl]-N-cyclohexyl-5,6,7,8-tetrahydro-1,6-naphthyridin-2-amine]
< 1 µM | O=C(CN1CCc2nc(NCC3CCCCC3)ccc2C1)N1CCN(C2CCC2)CC1 [Compound 659, 6-[2-(4-cyclobutylpiperazin-1-yl)-2-oxoethyl]-N-(cyclohexylmethyl)-5,6,7,8-tetrahydro-1,6-naphthyridin-2-amine]
< 1 µM | CCC(CC)CNc1ccc2c(n1)CCN(CC(=O)N1CCN(C3CCC3)CC1)C2 [Compound 660, 6-[2-(4-cyclobutylpiperazin-1-yl)-2-oxoethyl]-N-(2-ethylbutyl)-5,6,7,8-tetrahydro-1,6-naphthyridin-2-amine]
< 1 µM | CC(C)C(C)Nc1ccc2c(n1)CCN(CC(=O)N1CCN(C3CCC3)CC1)C2 (stereo not shown) [Compound 661, 6-[2-(4-cyclobutylpiperazin-1-yl)-2-oxoethyl]-N-(1,2-dimethylpropyl)-5,6,7,8-tetrahydro-1,6-naphthyridin-2-amine]
< 1 µM | CCC(CC)Nc1ccc2c(n1)CCN(CC(=O)N1CCN(C3CCC3)CC1)C2 [Compound 662, 6-[2-(4-cyclobutylpiperazin-1-yl)-2-oxoethyl]-N-(1-ethylpropyl)-5,6,7,8-tetrahydro-1,6-naphthyridin-2-amine]
< 1 µM | COCCNc1ccc2c(n1)CCN(CC(=O)N1CCN(C3CCC3)CC1)C2 [Compound 663, 6-[2-(4-cyclobutylpiperazin-1-yl)-2-oxoethyl]-N-(2-methoxyethyl)-5,6,7,8-tetrahydro-1,6-naphthyridin-2-amine]
< 1 µM | COCCCNc1ccc2c(n1)CCN(CC(=O)N1CCN(C3CCC3)CC1)C2 [Compound 664, 6-[2-(4-cyclobutylpiperazin-1-yl)-2-oxoethyl]-N-(3-methoxypropyl)-5,6,7,8-tetrahydro-1,6-naphthyridin-2-amine]
< 1 µM | CCC(COC)Nc1ccc2c(n1)CCN(CC(=O)N1CCN(C3CCC3)CC1)C2 (stereo not shown) [Compound 666, 6-[2-(4-cyclobutylpiperazin-1-yl)-2-oxoethyl]-N-[1-(methoxymethyl)propyl]-5,6,7,8-tetrahydro-1,6-naphthyridin-2-amine]
< 1 µM | CCOCCNc1ccc2c(n1)CCN(CC(=O)N1CCN(C3CCC3)CC1)C2 [Compound 667, 6-[2-(4-cyclobutylpiperazin-1-yl)-2-oxoethyl]-N-(2-ethoxyethyl)-5,6,7,8-tetrahydro-1,6-naphthyridin-2-amine]
< 1 µM | CO[C@H]1CCN(c2ccc3c(n2)CCN(CC(=O)N2CCN(C4CCC4)CC2)C3)C1 [Compound 670, 6-[2-(4-cyclobutylpiperazin-1-yl)-2-oxoethyl]-2-[(3S)-3-methoxypyrrolidin-1-yl]-5,6,7,8-tetrahydro-1,6-naphthyridine]
< 1 µM | COCCC1CCN(c2ccc3c(n2)CCN(CC(=O)N2CCN(C4CCC4)CC2)C3)CC1 [Compound 672, 6-[2-(4-cyclobutylpiperazin-1-yl)-2-oxoethyl]-2-[4-(2-methoxyethyl)piperidin-1-yl]-5,6,7,8-tetrahydro-1,6-naphthyridine]
< 1 µM | COCC1CCN(c2ccc3c(n2)CCN(CC(=O)N2CCN(C4CCC4)CC2)C3)CC1 [Compound 673, 6-[2-(4-cyclobutylpiperazin-1-yl)-2-oxoethyl]-2-[4-(methoxymethyl)piperidin-1-yl]-5,6,7,8-tetrahydro-1,6-naphthyridine]

— patent US20110082130A1 (LIGAND PHARMACEUTICALS, INC., priority 2006, published 2011)
